Assay [1] concerns the target T1, human leukocyte elastase (Homo sapiens, UniProt P08246).
T1 sequence (P08246 30-267): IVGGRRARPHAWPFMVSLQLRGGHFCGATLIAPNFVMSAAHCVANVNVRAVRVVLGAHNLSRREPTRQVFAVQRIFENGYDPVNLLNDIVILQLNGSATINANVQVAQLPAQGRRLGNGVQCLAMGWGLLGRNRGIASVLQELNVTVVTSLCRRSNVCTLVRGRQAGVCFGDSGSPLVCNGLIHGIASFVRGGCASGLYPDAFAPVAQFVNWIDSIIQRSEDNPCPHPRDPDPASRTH
The assay is described as follows: Inhibition of human leukocyte elastase (kobs/[I], spectrophotometric, MeOSuc-Ala-Ala-Pro-Val-AMC substrate). In kind it is biochemical. The procedure:
(§1) Z-Ala-Ala-AlaCH2SO2-Im, prepared as in Example 1, was assayed for serine protease inhibition activity against human leukocyte elastase. Various concentrations of inhibitor were rapidly mixed with fixed aliquots of enzyme and allowed to react for at least two half-lives. Aliquots of the treated enzyme were then assayed spectrophotometrically for protease activity using MeOSuc-Ala-Ala-Pro-Val-AMC as the substrate to determine kobs/[I]. […] 359-361 (1975), incorporated herein by reference.

Assay [2] deals with T2, human cathepsin G (Homo sapiens, UniProt P08311).
T2 sequence (P08311 21-244): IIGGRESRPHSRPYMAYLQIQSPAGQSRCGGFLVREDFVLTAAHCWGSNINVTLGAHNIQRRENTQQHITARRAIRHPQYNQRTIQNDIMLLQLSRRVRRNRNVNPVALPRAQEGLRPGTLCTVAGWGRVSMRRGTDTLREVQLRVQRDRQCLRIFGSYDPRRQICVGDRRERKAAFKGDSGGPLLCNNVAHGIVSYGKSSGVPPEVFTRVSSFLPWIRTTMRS
The assay is described as follows: Inhibition of human cathepsin G, assayed as in Example 2. In kind it is biochemical. Conditions: present-tense example. How it is done:
as §1
MeOSuc-Ala-Ala-Pro-ValCH2SO2-Im is prepared as in example 3 and assayed as in Example 2 for inhibition of human leukocyte elastase and human cathepsin G with the corresponding peptidyl chloromethane, MeOSuc-Gly-Leu-PheCH2SO2-Im, and Z-Ala-Ala-AlaCH2SO2-Im as comparator inhibitors.
Z-Gly-Leu-PheCH2SO2-Im is prepared as in Example 5, and is assayed as in Example 2 for inhibition of human cathepsin G and human leukocyte elastase with the corresponding peptidyl chloromethane, MeOSuc-Ala-Ala-Pro-ValCH2SO2-Im, and Z-Ala-Ala-AlaCH2SO2-Im as comparator inhibitors.

[3] abbreviates: enzyme concentration 200 μM, substrate 100 μM, inhibitor 200 μM.

As for `C[C@H](NC(=O)OCc1ccccc1)C(=O)N[C@@H](C)C(=O)N[C@@H](C)CS(=O)(=O)n1ccnc1` [Z-Ala-Ala-AlaCH2SO2-Im], the “times more potent than the corresponding peptidyl chloromethane inhibitor” value in assay [1] (comparator value as reported in Tuhy and Powers, FEBS Letters 50, 359-361 (1975)) worked out at 45 times. For the same compound, in assay [1] (setting [3]), the kobs amounted to 0.0025 s⁻¹ and the “kobs/[I]” value amounted to 12.7 M⁻¹ s⁻¹.
For the compound `CC(C)C[C@H](NC(=O)CNC(=O)OCc1ccccc1)C(=O)N[C@@H](Cc1ccccc1)CS(=O)(=O)n1ccnc1` [Z-Gly-Leu-PheCH2SO2-Im], in assay [2] (comparators: corresponding peptidyl chloromethane, MeOSuc-Ala-Ala-Pro-ValCH2SO2-Im, Z-Ala-Ala-AlaCH2SO2-Im), the “kobs/[I] against human cathepsin G compared with comparator inhibitors” value is recorded as “significantly higher”. The “kobs/[I] against human leukocyte elastase compared with MeOSuc-Ala-Ala-Pro-ValCH2SO2-Im” value in assay [1] (present-tense example) is reported as “significantly lower”.
As to MeOSuc-Ala-Ala-Pro-ValCH2SO2-Im, the “kobs/[I] against human cathepsin G compared with MeOSuc-Gly-Leu-PheCH2SO2-Im” value in assay [2] is reported as “significantly lower”. The “kobs/[I] against human leukocyte elastase compared with comparator inhibitors” value in assay [1] (comparators: corresponding peptidyl chloromethane, MeOSuc-Gly-Leu-PheCH2SO2-Im, Z-Ala-Ala-AlaCH2SO2-Im, present-tense example) is on record as “significantly higher”.

Values taken from US6358928B1, “Peptidyl sulfonyl imidazolides as selective inhibitors of serine proteases” (Enzyme Systems Products, priority 1999, dated 2002).
